US20180161400A1 (Emisphere Technologies, Inc., priority 2004, published 2018)
Where “and” joins values, the source holds several entries; their conditions need not be identical. Equal entries are not always repeated. Structures can show the parent of a compound that is named as a salt.

Key:
[1] = cited from earlier work
Sprague Dawley rats = test: Single oral gavage of insulin/4-CNAB/metformin solutions to fasted rats, blood glucose by hand-held glucometer; assay type: in vivo; details: for Percent Change in Glucose (from baseline), Mean / Blood Glucose, Mean: group mean n=5; for Percent Change in Glucose Compared to Carrier Alone, Mean: group mean; for Percent Change in Glucose Compared to Carrier Alone: individual rat vs vehicle group mean; for Percent Change in Glucose (from baseline) / Blood Glucose: individual rat
Experimental: These solutions were sonicated at 35° C. and the pH adjusted to 6.5-8.5 with sodium hydroxide.
Sprague Dawley rats were fasted overnight (16-24 h) and were divided into five groups for oral dosing (n=5 per group). Each rat received a single oral dose (by gavage) of dosing solution at a final dose volume of 1 mL/kg. […] The study also included a control group that received an oral dose of vehicle (water) alone. Blood samples were collected by the tail clip method at 0, 15, 30, 45, 60, 120, 180, 240 and 300 minutes and blood glucose was measured immediately using a hand-held glucometer.

[2] = system: people with Type 2 diabetes; details: cited from earlier work
Type 2 diabetics = details: cited from earlier work
[3] = cited from earlier work; remark: listed apart in the source
[4] = cited from earlier work; remark: listed apart in the source
[5] = system: patients with impaired glucose tolerance; details: compared with placebo, over 2.8 years; cited from earlier work
[6] = in vivo; cited from earlier work
[7] = 15 min, listed as Metformin (450)
[8] = 30 min, listed as Metformin (450)
[9] = 45 min, listed as Metformin (450)
[10] = 60 min, listed as Metformin (450)
[11] = 120 min, listed as Metformin (450)
[12] = 180 min, listed as Metformin (450)
[13] = 240 min, listed as Metformin (450)
[14] = 300 min, listed as Metformin (450)

With CN(C)C(=N)N=C(N)N [Metformin hydrochloride] as the compound, how does the “pH of a 1% aqueous solution” value [1] read?
The value was 6.68.

Which results are given for CN(C)C(=N)N=C(N)N [Metformin, 1,1-Dimethylbiguanidine]?
time of maximum decline in blood glucose (Sprague Dawley rats; after oral administration): about 45 minutes; Percent Change in Glucose (from baseline), Mean (Sprague Dawley rats; 0 min): 0.000%; Blood Glucose, Mean (Sprague Dawley rats; 0 min (pre-dose baseline), label doses mg/kg oral): 99.000 mg/dL; Percent Change in Glucose (from baseline), Mean (Sprague Dawley rats; 15 min): 2.053%; Blood Glucose, Mean (Sprague Dawley rats; 15 min after single oral dose): 101.200 mg/dL; Percent Change in Glucose (from baseline), Mean (Sprague Dawley rats; 30 min): −3.264%; Blood Glucose, Mean (Sprague Dawley rats; 30 min after single oral dose): 95.600 mg/dL; Percent Change in Glucose (from baseline), Mean (Sprague Dawley rats; 45 min): −13.716%; Blood Glucose, Mean (Sprague Dawley rats; 45 min after single oral dose): 85.200 mg/dL; Percent Change in Glucose (from baseline), Mean (Sprague Dawley rats; 60 min): −17.653%; Blood Glucose, Mean (Sprague Dawley rats; 60 min after single oral dose): 81.200 mg/dL; Percent Change in Glucose (from baseline), Mean (Sprague Dawley rats; 120 min): −35.050%; Blood Glucose, Mean (Sprague Dawley rats; 120 min after single oral dose): 63.800 mg/dL; Percent Change in Glucose (from baseline), Mean (Sprague Dawley rats; 180 min): −38.670%; Blood Glucose, Mean (Sprague Dawley rats; 180 min after single oral dose): 60.400 mg/dL; Percent Change in Glucose (from baseline), Mean (Sprague Dawley rats; 240 min): −40.832%; Blood Glucose, Mean (Sprague Dawley rats; 240 min after single oral dose): 58.200 mg/dL; Percent Change in Glucose (from baseline), Mean (Sprague Dawley rats; 300 min): −37.001%; Blood Glucose, Mean (Sprague Dawley rats; 300 min after single oral dose): 62.400 mg/dL; maximum decline in blood glucose from baseline (Sprague Dawley rats; group mean percent change at the peak time stated in the text): −40.832%; Percent Change in Glucose Compared to Carrier Alone, Mean (Sprague Dawley rats; 0 min): 18.990%; Percent Change in Glucose Compared to Carrier Alone, Mean (Sprague Dawley rats; 15 min): 4.521%; Percent Change in Glucose Compared to Carrier Alone, Mean (Sprague Dawley rats; 30 min): 7.223%; Percent Change in Glucose Compared to Carrier Alone, Mean (Sprague Dawley rats; 45 min): −0.770%; Percent Change in Glucose Compared to Carrier Alone, Mean (Sprague Dawley rats; 60 min): 1.563%; Percent Change in Glucose Compared to Carrier Alone, Mean (Sprague Dawley rats; 120 min): −4.797%; Percent Change in Glucose Compared to Carrier Alone, Mean (Sprague Dawley rats; 180 min): −9.824%; Percent Change in Glucose Compared to Carrier Alone, Mean (Sprague Dawley rats; 240 min): −12.757%; Percent Change in Glucose Compared to Carrier Alone, Mean (Sprague Dawley rats; 300 min): −2.733%; Percent Change in Glucose Compared to Carrier Alone (Sprague Dawley rats; 0 min, listed as Metformin (450)): 29.808% and 5.769% and 12.981% and 17.788% and 28.606%; Percent Change in Glucose Compared to Carrier Alone (Sprague Dawley rats; [7]): −8.511% and 2.128% and 6.383% and 16.085%; Percent Change in Glucose Compared to Carrier Alone (Sprague Dawley rats; [8]): −4.063% and 8.352% (2×) and 16.253%; Percent Change in Glucose Compared to Carrier Alone (Sprague Dawley rats; [9]): −8.768% and 5.450% and −2.844% and 3.081%; Percent Change in Glucose Compared to Carrier Alone (Sprague Dawley rats; [10]): −7.500% and 5.000% (2×) and 3.750%; Percent Change in Glucose Compared to Carrier Alone (Sprague Dawley rats; [11]): −6.977% and 4.651% and −17.151% and 0.291%; Percent Change in Glucose Compared to Carrier Alone (Sprague Dawley rats; [12]): −22.287% and −0.293% and −7.625% and −9.091%; Percent Change in Glucose Compared to Carrier Alone (Sprague Dawley rats; [13]): −17.889% and −4.692% and −20.821% and −7.625%; Percent Change in Glucose Compared to Carrier Alone (Sprague Dawley rats; [14]): −6.752% and 9.325% and −34.084% and 20.579%; Percent Change in Glucose (from baseline) (Sprague Dawley rats; 0 min): 0.000%; Blood Glucose (Sprague Dawley rats; 0 min (pre-dose baseline), label doses mg/kg oral, listed as Metformin (450)): 108 mg/dL and 88 mg/dL and 94 mg/dL and 98 mg/dL and 107 mg/dL; Percent Change in Glucose (from baseline) (Sprague Dawley rats; [7]): 4.630% and −2.273% and 2.128% and 2.041% and 3.738%; Blood Glucose (Sprague Dawley rats; 15 min after single oral dose, label doses mg/kg, listed as Metformin (450)): 113 mg/dL and 86 mg/dL and 96 mg/dL and 100 mg/dL and 111 mg/dL; Percent Change in Glucose (from baseline) (Sprague Dawley rats; [8]): −9.259% and −3.409% and 2.128% and −2.041% and −3.738%; Blood Glucose (Sprague Dawley rats; 30 min after single oral dose, label doses mg/kg, listed as Metformin (450)): 98 mg/dL and 85 mg/dL and 96 mg/dL (2×) and 103 mg/dL; Percent Change in Glucose (from baseline) (Sprague Dawley rats; [9]): −15.741% and −12.500% and −5.319% and −16.327% and −18.692%; Blood Glucose (Sprague Dawley rats; 45 min after single oral dose, label doses mg/kg, listed as Metformin (450)): 91 mg/dL and 77 mg/dL and 89 mg/dL and 82 mg/dL and 87 mg/dL; Percent Change in Glucose (from baseline) (Sprague Dawley rats; [10]): −25.000% and −15.909% and −10.638% and −14.286% and −22.430%; Blood Glucose (Sprague Dawley rats; 60 min after single oral dose, label doses mg/kg, listed as Metformin (450)): 81 mg/dL and 74 mg/dL and 84 mg/dL (2×) and 83 mg/dL; Percent Change in Glucose (from baseline) (Sprague Dawley rats; [11]): −47.222% and −27.273% and −23.404% and −41.837% and −35.514%; Blood Glucose (Sprague Dawley rats; 120 min after single oral dose, label doses mg/kg, listed as Metformin (450)): 57 mg/dL (2×) and 64 mg/dL and 72 mg/dL and 69 mg/dL; Percent Change in Glucose (from baseline) (Sprague Dawley rats; [12]): −48.148% and −39.773% and −27.660% and −35.714% and −42.056%; Blood Glucose (Sprague Dawley rats; 180 min after single oral dose, label doses mg/kg, listed as Metformin (450)): 56 mg/dL and 53 mg/dL and 68 mg/dL and 63 mg/dL and 62 mg/dL; Percent Change in Glucose (from baseline) (Sprague Dawley rats; [13]): −50.926% and −36.364% and −30.851% and −44.898% and −41.121%; Blood Glucose (Sprague Dawley rats; 240 min after single oral dose, label doses mg/kg, listed as Metformin (450)): 56 mg/dL (2×) and 65 mg/dL and 54 mg/dL and 63 mg/dL; Percent Change in Glucose (from baseline) (Sprague Dawley rats; [14]): −35.185% and −34.091% and −27.660% and −58.163% and −29.907%; Blood Glucose (Sprague Dawley rats; 300 min after single oral dose, label doses mg/kg, listed as Metformin (450)): 70 mg/dL and 58 mg/dL and 68 mg/dL and 41 mg/dL and 75 mg/dL; decrease in heart attacks ([2]; 10 year UKPDS, Type 2 diabetes): 39%; decrease in overall mortality ([2]; 10 year UKPDS, Type 2 diabetes): 36%; reduction of raised plasma insulin levels (Type 2 diabetics; cases of metabolic syndrome): ≤ 30%; lowering of A1c, average (Type 2 diabetics; human, in vivo): 1.5%; lowering of fasting blood glucose levels, average (Type 2 diabetics; human, in vivo): 25%; lowering of postprandial blood glucose (Type 2 diabetics; human, in vivo): up to 44.5%; non-absorbed fraction recovered in feces ([3]; after an oral dose): 20-30%; maximum metformin plasma levels (Cmax) ([3]; controlled clinical trials, even at maximum doses): ≤ 4 µg/mL; steady state plasma concentrations ([3]; usual doses and dosing schedules): less than 1 μg/mL; times less likely to cause lactic acidosis ([4]; compared with phenformin): 20 times; Lactic acidosis occurrence, once in every ... of use ([4]; in vivo): 30,000 person-years; mortality rate of lactic acidosis ([4]; in vivo): about 40%; reduction of the incidence of type 2 diabetes [5]: 31%

For CCCNC(=O)NS(=O)(=O)c1ccc(Cl)cc1 [chlorpropamide], which average weight gain ([2]; UKPDS intensive therapy) is on record?
The average weight gain was 2.6 kg.

For Glargine insulin: long-acting insulin, which duration of activity [6] is on record?
The duration of activity was 24 h.

What about the peak effect [6] of the same compound?
Its peak effect is “no peak effect”.
